System: Venturia inaequalis
Test: Venturia test (apple)/protective
Assay type: in vivo
Conditions: Venturia inaequalis, 240 h, protective, application rate 100 g/ha, evaluation 10 days after inoculation, read-out: Efficacy in %
Procedure: Venturia Test (Apple)/Protective [table] To produce a suitable preparation of active compound, 1 part by weight of active compound is mixed with the stated amounts of solvent and emulsifier, and the concentrate is diluted with water to the desired concentration. To test for protective activity, young plants are sprayed with the preparation of active compound at the stated application rate. […] The plants are then placed in a greenhouse at about 21° C. and a relative atmospheric humidity of about […].

SMILES	pest or weed control at 100 g/ha [%]
C[C@H](Nc1c(-c2c(F)cc(F)cc2F)c(Cl)nc2nc(Br)nn12)C(F)(F)F [drawing 56]	99
CC1CCCN(c2c(-c3c(F)cc(F)cc3F)c(Cl)nc3nc(Cl)nn23)C1 (stereo not shown) [drawing 57]	96
CC(C)CNc1c(-c2ccc(F)cc2F)c(Cl)nc2nc(Cl)nn12 [drawing 58]	85
C[C@H](Nc1c(-c2c(F)cccc2Cl)c(Cl)nc2nc(Cl)nn12)C(F)(F)F [drawing 59]	100
Fc1ccc(-c2c(Cl)nc3nc(Cl)nn3c2N[C@@H](Cl)C(F)(F)F)c(F)c1 [drawing 60]	100
Fc1cccc(Cl)c1-c1c(Cl)nc2nc(Cl)nn2c1N1CCCC1 [drawing 61]	85
C=CCN(CC)c1c(-c2c(F)cccc2Cl)c(Cl)nc2nc(Cl)nn12 [drawing 62]	96
CC(C)CNc1c(-c2c(F)cccc2Cl)c(Cl)nc2nc(Cl)nn12 [drawing 63]	91
Fc1cccc(Cl)c1-c1c(Cl)nc2nc(Cl)nn2c1NCC1CC1 [drawing 64]	99
COCCN(C)c1c(-c2c(F)cccc2Cl)c(Cl)nc2nc(Cl)nn12 [drawing 65]	96
COc1nc2nc(Cl)c(-c3c(F)cc(F)cc3OC)c(NC(C)C(F)(F)F)n2n1 (stereo not shown) [drawing 67]	99

Same assay, conditions: protective, application rate 100 g/ha, evaluation 10 days after inoculation

SMILES	Efficacy in % [%]
C=C(C)CN(C)c1c(-c2c(F)cccc2Cl)c(Cl)nc2nc(Cl)nn12 [drawing 66]	84

System: not listed separately
Test: physchem
Conditions: not given

SMILES	chromatographic logP
CC(C)Nc1c(-c2ccccc2Cl)c(Cl)nc2nc(Cl)nn12 [Example 1, N-[2,5-dichloro-6-(2-chlorophenyl)[1,2,4]triazolo[1,5-a]pyrimidin-7-yl]-N-isopropylamine]	3.43
Clc1nc2nc(Cl)c(-c3ccccc3Cl)c(Cl)n2n1 [Example 177, 2,5,7-trichloro-6-(2-chlorophenyl)[1,2,4]triazolo[1,5-a]pyrimidine]	3.37
Clc1ccccc1-c1c(Cl)nc2nc(Br)nn2c1Cl [Example 178, 2-Bromo-5,7-dichloro-6-(2-chlorophenyl)[1,2,4]triazolo[1,5-a]pyrimidine]	3.39
Fc1cc(F)c(-c2c(Cl)nc3nc(Cl)nn3c2Cl)c(F)c1 [Example 179, 2,5,7-Trichloro-6-(2,4,6-trifluorophenyl)[1,2,4]triazolo[1,5-a]pyrimidine]	3.28
Fc1cc(F)c(-c2c(Cl)nc3nc(Br)nn3c2Cl)c(F)c1 [Example 180, 2-Bromo-5,7-dichloro-6-(2,4,6-trifluorophenyl)[1,2,4]triazolo[1,5-a]pyrimidine]	3.27

System: Pyricularia oryzae
Test: not given
Assay type: in vivo
Conditions: rice, protective, application rate 250 g/ha, evaluation 6 days after inoculation

SMILES	Efficacy in % [%]
C[C@H](Nc1c(-c2ccccc2Cl)c(Cl)nc2nc(Cl)nn12)C(F)(F)F	100
C[C@H](Nc1c(-c2c(F)cccc2Cl)c(Cl)nc2nc(Cl)nn12)C(F)(F)F [drawing 69]	100

Reference: patent US20050222173A1, “Triazolopyrimidines” (priority 2002, published 2005)
